Source: publication PMC11542786, “Isoscopoletin inhibits hepatocellular carcinoma cell proliferation via regulating glycolysis-related proteins” (PLOS ONE, 2024)

Tests used:
Test in all cases: microscale thermophoresis
Assay type in all cases: binding
[1] = target: T1, GPD2 (Homo sapiens, UniProt P43304)
T1 construct: labelled with DyLight 488 for MST; docking model 1x0v is not the assayed protein
T1 sequence (P43304 43-727): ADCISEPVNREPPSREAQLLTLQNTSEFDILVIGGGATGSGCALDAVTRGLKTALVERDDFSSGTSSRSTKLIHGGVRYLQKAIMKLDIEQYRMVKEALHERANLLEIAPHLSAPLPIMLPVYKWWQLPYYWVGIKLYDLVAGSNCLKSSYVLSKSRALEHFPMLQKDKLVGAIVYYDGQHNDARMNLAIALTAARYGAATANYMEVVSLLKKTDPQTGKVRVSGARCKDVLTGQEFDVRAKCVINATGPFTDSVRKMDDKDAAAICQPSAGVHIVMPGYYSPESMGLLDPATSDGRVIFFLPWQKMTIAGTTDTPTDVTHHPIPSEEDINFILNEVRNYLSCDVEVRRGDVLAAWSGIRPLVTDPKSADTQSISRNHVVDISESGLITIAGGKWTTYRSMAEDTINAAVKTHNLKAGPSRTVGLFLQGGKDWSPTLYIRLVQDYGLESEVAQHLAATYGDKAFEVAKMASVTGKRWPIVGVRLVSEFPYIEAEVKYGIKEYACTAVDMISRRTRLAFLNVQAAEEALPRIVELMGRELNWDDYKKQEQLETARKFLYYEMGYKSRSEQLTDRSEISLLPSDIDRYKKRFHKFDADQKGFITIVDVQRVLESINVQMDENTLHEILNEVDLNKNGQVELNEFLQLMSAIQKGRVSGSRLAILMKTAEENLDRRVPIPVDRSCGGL

[2] = target: T2, PGK2 (Homo sapiens, UniProt P07205)
T2 construct: labelled with DyLight 488 for MST; docking model 2paa is not the assayed protein
T2 sequence (P07205 2-417): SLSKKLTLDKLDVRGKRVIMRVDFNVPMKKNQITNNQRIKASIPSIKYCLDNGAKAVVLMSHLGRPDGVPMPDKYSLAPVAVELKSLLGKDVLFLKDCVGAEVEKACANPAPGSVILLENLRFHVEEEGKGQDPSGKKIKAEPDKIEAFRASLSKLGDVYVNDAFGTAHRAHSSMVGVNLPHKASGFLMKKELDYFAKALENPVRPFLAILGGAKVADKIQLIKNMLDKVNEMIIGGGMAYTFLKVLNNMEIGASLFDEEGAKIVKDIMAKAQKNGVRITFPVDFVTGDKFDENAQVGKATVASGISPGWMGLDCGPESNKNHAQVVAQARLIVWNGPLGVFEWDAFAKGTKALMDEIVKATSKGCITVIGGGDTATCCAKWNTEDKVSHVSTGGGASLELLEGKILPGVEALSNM

[3] = target: T3, Hsp90α (Homo sapiens, UniProt P07900)
T3 construct: gene HSP90AA1; labelled with DyLight 488 for MST

[4] = target: T4, GPI (Homo sapiens, UniProt P06744)
T4 construct: labelled with DyLight 488 for MST

COc1cc2oc(=O)ccc2cc1O [Isoscopoletin]
Kd [1]: 13.4 mM | Kd [2]: 3.22 mM | Kd [3]: 52.2 mM | Kd [4]: 1.35 mM
